According to PMC5380139 (FEBS letters, 2017):

Target: T1, LipL (Streptomyces sp., UniProt D4QF25)
T1 sequence (D4QF25 1-274): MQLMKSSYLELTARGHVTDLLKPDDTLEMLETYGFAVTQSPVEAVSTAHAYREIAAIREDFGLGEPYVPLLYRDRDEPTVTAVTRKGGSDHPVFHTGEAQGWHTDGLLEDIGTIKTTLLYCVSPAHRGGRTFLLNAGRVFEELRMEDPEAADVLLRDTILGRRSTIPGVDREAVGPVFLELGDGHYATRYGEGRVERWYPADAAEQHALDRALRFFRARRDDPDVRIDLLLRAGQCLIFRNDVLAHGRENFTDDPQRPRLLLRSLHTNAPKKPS
Assay type: biochemical

`O=c1ccn([C@@H]2O[C@H](CCP(=O)(O)O)[C@@H](O)[C@H]2O)c(=O)[nH]1` [UMcP, 5′-deoxyuridine-5′-methylphosphonate] showed a Ki of 800 nM.
